We go through 1 compound from patent US20220387358A1, “CERAMIDE ANALOG SACLAC MODULATES SPHINGOLIPID LEVELS AND MCL-1 SPLICING TO INDUCE APOPTOSIS IN ACUTE MYELOID LEUKEMIA” (University of Virginia Patent Foundation, priority 2019, published 2022).

What is called EC50 is the concentration giving half of the maximal effect. A low value points to a more potent agent.

In data set [1] the test system is normal CD34+ cells. Kind of data set: Cell viability of normal samples ([…]-GLO). The following applies: Homo sapiens; CD34+ (n=4); 24 hours. The class given is cell-based. An excerpt:
Healthy donor samples: PBMCs from healthy donors were enriched using the Ficoll-Paque gradient separation method. CD34+PBMCs mobilized with G-CSF were obtained from the University of Virginia Health System Blood Bank (Charlottesville, Va., United States of America). CD34+ cells were isolated from PBMCs with a Human CD34 MicroBead Kit (#130-046, Miltenyi Biotec, Bergisch Gladbach, Germany) using the autoMACS Pro Separator (#130-092-545, Miltenyi Biotec, Bergisch Gladbach, Germany). For cell viability, cell lines were plated at 2.5×10^4 cells per well in a 96-well plate and treated with […] or DMSO vehicle (0.4% of total volume) for the indicated time points and doses. […] Conversion of MTS to formazan product was measured by absorbance at 490 nm using a BioTek Cytation 3 plate reader (BioTeck, Winooski, Vt., United States of America). Absorbance was normalized to DMSO control, which was defined as 100% viability. […] After 15 minutes, luminescence was read on a BioTek Cytation 3 plate reader (BioTek, Winooski, Vt., United States of America). Absorbance was normalized to DMSO control, which was defined as 100% viability.

For data set [2], the system named is primary AML patient samples. Nature of the data set: Colony forming assay. It counts as cell-based, human. The following applies: six primary patient samples. The method, then: Cryopreserved human AML patient samples were thawed and washed twice with RPMI 1640 supplemented with 2% heat inactivated fetal bovine serum (FBS). After washes, cells were cultured in triplicate in 12-well plates at a density of 0.1 to 2×10^5 cells per well in Human Methylcellulose Complete Media (#HSC003R&D Systems, Minneapolis, Minnesota, United States of America). Plating densities were selected for each case to yield colony outgrowth of 20-100 colonies per well. The desired cell number and dose of SACLAC or DMSO was added to the culture media and dispensed to multi-well plates. Colonies were propagated for 10-14 days and blast colonies (>20 cells) were counted in a blinded manner under the light microscope.

Data set [3] is described as follows: Solubility in vehicles for i.v. drug delivery. The class given is physicochemical.
The subject of data set [4] is OCI-AML2 cells. Kind of data set: Caspase 3/7 activation. The class given is cell-based, human. The following applies: increasing doses; 24 hours. The method, then: Apoptosis in cell lines was assessed after treating 2.5×10^5 cells per ml with drug or vehicle in a 48-well plate for the indicated time points and doses. Primary human AML cells were pre-incubated with SFEM for 48 hours before plating 2×10^5 cells in 24-well plates for the indicated times point and doses. Samples were stained using the Muse Annexin V & Dead Cell Kit (Millipore #MCH100105). Change in mitochondrial membrane potential in cell lines was measured with the Muse® MitoPotential Kit (#MCH100110, MilliporeSigma, Burlington, Mass., United States of America). Caspase activation was measured using the Muse® Caspase 3/7 Assay Kit (#MCH100108, MilliporeSigma, Burlington, Mass., United States of America). For rescue experiments, cells were plated at 2.5×10^4 well in a 96-well plate 24 hours after electroporation. Cells were treated with DMSO or […] for 48 hours and apoptosis was detected as stated above. All kits were used according to manufacturer's protocol. Cells were then analyzed using the Muse® Cell Analyzer (MilliporeSigma, Burlington, Massachusetts, United States of America) (35,36). Experiments included positive and negative controls for proper analysis.

For data set [5], the system named is KG1a cells. Nature of the data set: Rescue from SACLAC-induced apoptosis by Mcl-1S knockdown. The following applies: 10 μM SACLAC 48 hours; siRNA (100 nM) targeting MCL-1S vs scrambled. It counts as cell-based, human. The protocol: Apoptosis in cell lines was assessed after treating 2.5×10^5 cells per ml with drug or vehicle in a 48-well plate for the indicated time points and doses. Primary human AML cells were pre-incubated with SFEM for 48 hours before plating 2×10^5 cells in 24-well plates for the indicated times point and doses. Samples were stained using the Muse Annexin V & Dead Cell Kit (Millipore #MCH100105). Change in mitochondrial membrane potential in cell lines was measured with the Muse® MitoPotential Kit (#MCH100110, MilliporeSigma, Burlington, Mass., United States of America). Caspase activation was measured using the Muse® Caspase 3/7 Assay Kit (#MCH100108, MilliporeSigma, Burlington, Mass., United States of America). For rescue experiments, cells were plated at 2.5×10^4 well in a 96-well plate 24 hours after electroporation. Cells were treated with DMSO or SACLAC for 48 hours and apoptosis was detected as stated above. All kits were used according to manufacturer's protocol. Cells were then analyzed using the Muse® Cell Analyzer (MilliporeSigma, Burlington, Massachusetts, United States of America) (35,36). Experiments included positive and negative controls for proper analysis. […]

Data set [6] can be described thus: Mouse serum SACLAC levels by formulation and route. The class given is in vivo. The protocol: More particularly, SACLAC was dissolved in 2-hydroxypropyl-β-cyclodextrin (β-HPCD) (53). In addition, a SACLAC nanoliposome was prepared.

Turning to `CCCCCCCCCCCCCCC[C@@H](O)[C@H](CO)NC(=O)CCl` [SACLAC, N-[(2S,3R)-1,3-dihydroxyoctadecan-2-yl]2-chloroacetamide], the EC50 in data set [1] came to 4 µM. The results for the “colony formation decreased (average)” value in data set [2] (5 μM) and in data set [2] (20 μM) were 32% and 69%, respectively. For the same compound, the “solubility in vehicles for i.v. drug delivery” value in data set [3] is “low solubility”. The “caspase 3/7 activation” value in data set [4] was “dose-dependent caspase activation”. Moreover, the “apoptosis induction reduced by, in Mcl-1S knockdown cells” value in data set [5] was determined as 36%. The clearance result in data set [6] (all treatment groups) is “rapidly cleared”. The serum levels result is listed as “low serum levels” in data set [6] (free SACLAC in DMSO, i.p.) and “improvement” in data set [6] (β-HPCD, i.v.). The maximum serum level in data set [6] (maximum over the formulations tested) was around 1 µM.
